Laboratory results published in ChEMBL document CHEMBL1201862, “PubChem BioAssay data set” (2004).
One block for each compound: values may come before it. The source made the active and inactive calls.

What was measured:
[1] = biological target: Peroxisome proliferator-activated receptor gamma/Nuclear receptor coactivator 2 (Homo sapiens, UniProt P37231); type: functional;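 also: agonist potency for raising coactivator recruitment to the receptor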
[2] = biological target: Peroxisome proliferator-activated receptor gamma/Nuclear receptor coactivator 3 (Homo sapiens, UniProt P37231); type: functional;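 also: agonist potency for raising coactivator recruitment to the receptor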
Peroxisome proliferator-activated receptor gamma/Nuclear receptor coactivator 3, sequence (P37231 whole entry): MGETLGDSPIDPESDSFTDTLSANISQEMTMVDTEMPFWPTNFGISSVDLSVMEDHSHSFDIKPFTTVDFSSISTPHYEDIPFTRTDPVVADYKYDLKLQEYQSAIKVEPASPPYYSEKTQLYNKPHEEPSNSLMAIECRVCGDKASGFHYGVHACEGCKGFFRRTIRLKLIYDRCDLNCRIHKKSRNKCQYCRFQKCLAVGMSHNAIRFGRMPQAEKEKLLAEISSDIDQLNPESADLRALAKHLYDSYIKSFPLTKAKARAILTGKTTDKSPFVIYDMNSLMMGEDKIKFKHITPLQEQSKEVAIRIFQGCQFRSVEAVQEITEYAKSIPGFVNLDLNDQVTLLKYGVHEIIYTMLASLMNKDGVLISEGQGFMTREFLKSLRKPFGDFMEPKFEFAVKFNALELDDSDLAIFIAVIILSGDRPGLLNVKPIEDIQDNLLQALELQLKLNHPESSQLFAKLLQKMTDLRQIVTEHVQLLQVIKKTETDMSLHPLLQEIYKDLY
Peroxisome proliferator-activated receptor gamma/Nuclear receptor coactivator 3, sequence (Q9Y6Q9 whole entry, further chain): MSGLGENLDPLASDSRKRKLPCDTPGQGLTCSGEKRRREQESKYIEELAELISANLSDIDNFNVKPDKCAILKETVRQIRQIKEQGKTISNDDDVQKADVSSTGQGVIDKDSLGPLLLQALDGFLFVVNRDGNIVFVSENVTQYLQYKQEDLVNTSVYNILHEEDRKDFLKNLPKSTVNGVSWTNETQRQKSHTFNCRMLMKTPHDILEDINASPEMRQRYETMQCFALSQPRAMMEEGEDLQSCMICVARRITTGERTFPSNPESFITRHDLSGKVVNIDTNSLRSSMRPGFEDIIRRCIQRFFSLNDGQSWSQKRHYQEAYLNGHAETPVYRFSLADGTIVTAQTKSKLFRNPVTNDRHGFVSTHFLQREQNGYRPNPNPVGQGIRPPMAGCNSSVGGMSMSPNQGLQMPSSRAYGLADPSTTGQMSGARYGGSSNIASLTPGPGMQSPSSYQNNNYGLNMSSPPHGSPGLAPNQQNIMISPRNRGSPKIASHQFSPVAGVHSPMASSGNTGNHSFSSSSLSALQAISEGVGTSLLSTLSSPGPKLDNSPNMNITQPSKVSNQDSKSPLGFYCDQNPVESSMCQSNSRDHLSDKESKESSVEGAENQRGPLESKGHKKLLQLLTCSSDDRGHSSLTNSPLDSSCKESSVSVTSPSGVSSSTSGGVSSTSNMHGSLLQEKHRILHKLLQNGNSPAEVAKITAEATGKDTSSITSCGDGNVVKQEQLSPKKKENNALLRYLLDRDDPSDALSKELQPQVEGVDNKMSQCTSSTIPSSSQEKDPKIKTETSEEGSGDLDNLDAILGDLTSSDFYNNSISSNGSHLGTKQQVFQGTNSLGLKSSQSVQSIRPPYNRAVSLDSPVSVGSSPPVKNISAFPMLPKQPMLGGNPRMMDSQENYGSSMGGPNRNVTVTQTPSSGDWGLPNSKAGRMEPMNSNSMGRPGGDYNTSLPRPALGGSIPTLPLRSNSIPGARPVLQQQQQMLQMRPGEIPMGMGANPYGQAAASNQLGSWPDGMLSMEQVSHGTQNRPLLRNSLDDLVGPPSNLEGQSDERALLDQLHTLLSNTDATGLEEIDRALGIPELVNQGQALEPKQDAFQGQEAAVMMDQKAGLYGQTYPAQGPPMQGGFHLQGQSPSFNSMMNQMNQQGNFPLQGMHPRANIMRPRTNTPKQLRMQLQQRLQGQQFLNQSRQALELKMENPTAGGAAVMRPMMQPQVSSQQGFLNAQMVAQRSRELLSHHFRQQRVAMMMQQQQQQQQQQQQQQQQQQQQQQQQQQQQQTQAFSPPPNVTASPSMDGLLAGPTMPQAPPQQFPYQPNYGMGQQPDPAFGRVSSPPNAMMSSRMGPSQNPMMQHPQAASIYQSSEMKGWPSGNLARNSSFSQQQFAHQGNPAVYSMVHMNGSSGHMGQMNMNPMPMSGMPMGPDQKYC

[3] = biological target: Peroxisome proliferator-activated receptor gamma/Nuclear receptor coactivator 1 (Homo sapiens, UniProt P37231); type: functional;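 also: agonist potency as compounds enhance coactivator SRC-1 recruitment to PPARgamma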
Peroxisome proliferator-activated receptor gamma/Nuclear receptor coactivator 1, sequence (P37231 whole entry): as the sequence (P37231 whole entry) above
Peroxisome proliferator-activated receptor gamma/Nuclear receptor coactivator 1, sequence (Q15788 whole entry, further chain): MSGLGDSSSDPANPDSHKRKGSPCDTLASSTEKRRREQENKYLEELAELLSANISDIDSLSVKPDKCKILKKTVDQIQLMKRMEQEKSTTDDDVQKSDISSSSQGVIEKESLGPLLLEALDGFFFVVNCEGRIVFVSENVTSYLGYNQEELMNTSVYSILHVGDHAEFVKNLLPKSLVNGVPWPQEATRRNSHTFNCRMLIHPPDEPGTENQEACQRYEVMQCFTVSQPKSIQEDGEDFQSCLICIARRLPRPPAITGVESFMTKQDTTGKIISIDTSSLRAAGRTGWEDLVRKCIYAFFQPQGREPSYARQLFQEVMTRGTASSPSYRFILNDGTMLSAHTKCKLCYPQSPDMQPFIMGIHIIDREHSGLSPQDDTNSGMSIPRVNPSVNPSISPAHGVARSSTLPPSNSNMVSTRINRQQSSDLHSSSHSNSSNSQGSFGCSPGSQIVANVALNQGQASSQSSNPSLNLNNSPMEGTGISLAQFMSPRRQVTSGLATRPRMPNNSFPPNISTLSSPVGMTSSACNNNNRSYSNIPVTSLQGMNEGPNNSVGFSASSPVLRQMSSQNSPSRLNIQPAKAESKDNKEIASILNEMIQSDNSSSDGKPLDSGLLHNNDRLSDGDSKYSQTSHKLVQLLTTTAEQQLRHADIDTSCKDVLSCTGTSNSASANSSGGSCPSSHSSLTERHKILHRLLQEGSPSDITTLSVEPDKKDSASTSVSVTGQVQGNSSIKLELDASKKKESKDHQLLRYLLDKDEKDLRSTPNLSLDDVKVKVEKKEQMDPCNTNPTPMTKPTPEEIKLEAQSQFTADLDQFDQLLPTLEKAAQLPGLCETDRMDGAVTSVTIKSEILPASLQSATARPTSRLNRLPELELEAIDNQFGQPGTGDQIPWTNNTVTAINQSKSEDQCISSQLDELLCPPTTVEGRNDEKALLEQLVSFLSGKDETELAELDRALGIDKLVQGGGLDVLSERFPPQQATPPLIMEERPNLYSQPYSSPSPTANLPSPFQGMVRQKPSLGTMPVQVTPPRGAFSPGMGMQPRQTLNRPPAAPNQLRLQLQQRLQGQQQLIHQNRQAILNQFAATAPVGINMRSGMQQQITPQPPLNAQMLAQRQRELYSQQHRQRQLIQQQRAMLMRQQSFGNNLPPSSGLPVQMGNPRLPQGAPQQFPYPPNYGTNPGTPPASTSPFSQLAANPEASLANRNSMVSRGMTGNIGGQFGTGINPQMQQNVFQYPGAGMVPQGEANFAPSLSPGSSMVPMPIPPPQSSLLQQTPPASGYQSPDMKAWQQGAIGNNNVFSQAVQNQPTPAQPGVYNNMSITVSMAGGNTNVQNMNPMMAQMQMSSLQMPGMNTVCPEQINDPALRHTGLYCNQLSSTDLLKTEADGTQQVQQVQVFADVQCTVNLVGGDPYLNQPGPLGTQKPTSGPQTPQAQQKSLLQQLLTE

[4] = biological target: T1, Small ubiquitin-related modifier 1 (Homo sapiens, UniProt P63165); test: SUMO1 protein interaction blockers, potency – biochemical, fluorescence polarization, uHTS hits, dose response (AID 624382); type: functional; settings: read-out: IC50_Mean
T1 sequence (P63165 whole entry): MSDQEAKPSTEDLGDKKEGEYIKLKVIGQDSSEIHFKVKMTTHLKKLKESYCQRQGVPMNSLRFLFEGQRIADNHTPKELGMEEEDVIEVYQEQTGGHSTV

[5] = biological target: T1, Small ubiquitin-related modifier 1; test: SUMO1 protein-protein binding blockers, potency – biochemical, FRET, dose response (AID 624383); type: functional; settings: read-out: IC50_Mean
[6] = biological target: T2, DNA repair and recombination protein RAD54-like (Homo sapiens, UniProt Q92698); test: RAD54 Holliday junction migration blockers – biochemical, fluorescence, cherry-picked samples, dose series, confirmation (AID 651657); type: functional
T2 sequence (Q92698 whole entry): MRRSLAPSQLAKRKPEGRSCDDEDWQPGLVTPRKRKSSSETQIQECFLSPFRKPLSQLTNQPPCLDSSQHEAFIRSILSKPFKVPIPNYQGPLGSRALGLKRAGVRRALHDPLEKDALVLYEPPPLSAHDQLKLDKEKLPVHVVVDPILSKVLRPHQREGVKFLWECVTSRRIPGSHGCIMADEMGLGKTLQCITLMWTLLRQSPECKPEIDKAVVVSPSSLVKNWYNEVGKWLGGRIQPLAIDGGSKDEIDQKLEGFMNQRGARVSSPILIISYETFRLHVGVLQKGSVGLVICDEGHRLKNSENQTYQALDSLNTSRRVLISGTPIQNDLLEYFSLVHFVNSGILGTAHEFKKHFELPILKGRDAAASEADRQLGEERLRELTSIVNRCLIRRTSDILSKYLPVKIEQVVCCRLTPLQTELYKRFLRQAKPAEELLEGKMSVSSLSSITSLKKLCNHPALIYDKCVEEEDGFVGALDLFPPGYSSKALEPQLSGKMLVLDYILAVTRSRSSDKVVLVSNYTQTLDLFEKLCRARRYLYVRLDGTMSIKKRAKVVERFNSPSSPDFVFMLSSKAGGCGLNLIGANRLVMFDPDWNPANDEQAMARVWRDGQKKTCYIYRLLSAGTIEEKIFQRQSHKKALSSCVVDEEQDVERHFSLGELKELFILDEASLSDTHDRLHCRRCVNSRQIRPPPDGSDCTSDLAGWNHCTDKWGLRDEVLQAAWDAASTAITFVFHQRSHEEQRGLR

[7] = biological target: T3, Short transient receptor potential channel 4 (Mus musculus, UniProt Q9QUQ5); test: block of DAMGO-driven TRPC4 calcium entry – cell-based, HEK293 TRPC4/mu-opioid, Fluo-4 calcium, dose response (AID 434942); type: functional;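 also: potency of inhibitors blocking the TRPC4 calcium response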
T3 sequence (Q9QUQ5 whole entry): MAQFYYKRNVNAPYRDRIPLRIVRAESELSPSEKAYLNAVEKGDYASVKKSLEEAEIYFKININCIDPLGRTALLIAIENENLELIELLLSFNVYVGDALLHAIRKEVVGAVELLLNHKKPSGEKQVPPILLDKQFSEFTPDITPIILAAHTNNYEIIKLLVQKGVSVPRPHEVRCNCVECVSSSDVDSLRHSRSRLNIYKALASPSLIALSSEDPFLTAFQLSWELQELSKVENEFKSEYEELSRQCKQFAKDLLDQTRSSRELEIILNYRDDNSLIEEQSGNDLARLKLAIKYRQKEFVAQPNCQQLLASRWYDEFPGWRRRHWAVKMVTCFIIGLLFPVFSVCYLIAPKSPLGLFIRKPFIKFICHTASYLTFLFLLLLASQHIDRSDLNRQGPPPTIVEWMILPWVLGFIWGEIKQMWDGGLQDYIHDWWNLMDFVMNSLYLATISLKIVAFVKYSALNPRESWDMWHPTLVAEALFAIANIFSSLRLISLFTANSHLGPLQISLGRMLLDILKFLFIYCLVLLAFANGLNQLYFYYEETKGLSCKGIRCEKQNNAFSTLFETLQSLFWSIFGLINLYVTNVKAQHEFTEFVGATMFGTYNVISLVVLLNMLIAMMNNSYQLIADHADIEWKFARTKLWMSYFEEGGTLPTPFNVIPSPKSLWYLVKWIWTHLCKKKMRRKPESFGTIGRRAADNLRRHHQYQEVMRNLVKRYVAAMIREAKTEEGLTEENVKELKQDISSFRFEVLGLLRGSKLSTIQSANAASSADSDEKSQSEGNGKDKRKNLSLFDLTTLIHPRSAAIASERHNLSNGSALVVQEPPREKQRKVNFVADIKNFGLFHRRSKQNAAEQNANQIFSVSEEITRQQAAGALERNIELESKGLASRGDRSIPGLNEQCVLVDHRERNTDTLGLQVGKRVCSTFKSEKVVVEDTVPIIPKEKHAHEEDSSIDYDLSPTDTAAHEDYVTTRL

Cytochrome P450 2C9 = Cytochrome P450 2C9 (Homo sapiens, UniProt P11712)
Cytochrome P450 2C9, sequence (P11712 whole entry): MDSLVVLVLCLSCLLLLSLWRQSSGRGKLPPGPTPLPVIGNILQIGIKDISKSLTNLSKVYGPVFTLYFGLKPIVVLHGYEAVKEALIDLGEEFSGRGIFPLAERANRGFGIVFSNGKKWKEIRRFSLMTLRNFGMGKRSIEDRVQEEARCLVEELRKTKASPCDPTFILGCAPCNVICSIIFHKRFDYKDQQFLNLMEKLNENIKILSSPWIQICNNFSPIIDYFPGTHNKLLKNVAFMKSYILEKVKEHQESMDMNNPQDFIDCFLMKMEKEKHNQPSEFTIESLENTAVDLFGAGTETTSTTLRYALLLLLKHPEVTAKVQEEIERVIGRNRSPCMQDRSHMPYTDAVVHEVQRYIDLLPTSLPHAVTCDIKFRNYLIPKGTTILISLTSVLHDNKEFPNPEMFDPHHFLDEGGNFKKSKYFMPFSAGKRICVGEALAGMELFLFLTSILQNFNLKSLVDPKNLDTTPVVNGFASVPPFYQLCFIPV

[8] = biological target: T4, Corticotropin-releasing factor receptor 2/Corticotropin-releasing factor-binding protein (Homo sapiens, UniProt P24387+Q13324); test: Dose Response confirmation of uHTS hits for small molecule antagonists of the CRF-binding protein and CRF-R2 receptor complex.; type: functional; settings: read-out: IC50_Mean
T4 sequence (Q13324 whole entry): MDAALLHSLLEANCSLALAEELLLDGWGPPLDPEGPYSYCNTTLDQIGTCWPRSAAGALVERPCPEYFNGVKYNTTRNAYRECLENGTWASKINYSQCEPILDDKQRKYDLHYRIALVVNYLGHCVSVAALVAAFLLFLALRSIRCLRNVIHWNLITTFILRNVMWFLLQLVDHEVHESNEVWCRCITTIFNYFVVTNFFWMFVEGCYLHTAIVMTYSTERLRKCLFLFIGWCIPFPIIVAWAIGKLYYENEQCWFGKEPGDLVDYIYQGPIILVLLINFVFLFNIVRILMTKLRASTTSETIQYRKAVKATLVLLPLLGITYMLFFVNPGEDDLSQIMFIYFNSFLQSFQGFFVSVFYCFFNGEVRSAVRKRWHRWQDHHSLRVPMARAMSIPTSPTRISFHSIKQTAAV
T4 sequence (P24387 whole entry): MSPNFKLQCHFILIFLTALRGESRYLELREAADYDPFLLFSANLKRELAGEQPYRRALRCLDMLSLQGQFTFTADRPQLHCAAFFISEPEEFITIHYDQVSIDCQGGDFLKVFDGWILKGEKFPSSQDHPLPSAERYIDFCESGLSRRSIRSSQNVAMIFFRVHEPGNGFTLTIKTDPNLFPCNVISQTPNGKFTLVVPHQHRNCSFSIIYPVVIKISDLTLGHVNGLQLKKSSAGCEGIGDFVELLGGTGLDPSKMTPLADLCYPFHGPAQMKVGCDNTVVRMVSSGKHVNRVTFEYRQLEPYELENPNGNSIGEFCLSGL

[9] = biological target: T4, Corticotropin-releasing factor receptor 2/Corticotropin-releasing factor-binding protein; test: activators of CRF receptor 2 with binding protein – uHTS hits, confirmation (AID 602473); type: functional; settings: read-out: EC50_Mean
Cytochrome P450 1A2 = biological target: T5, Cytochrome P450 1A2 (Homo sapiens, UniProt P05177);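 also: PubChem cytochrome P450 panel assay, CYP1A2 panel member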
T5 sequence (P05177 whole entry): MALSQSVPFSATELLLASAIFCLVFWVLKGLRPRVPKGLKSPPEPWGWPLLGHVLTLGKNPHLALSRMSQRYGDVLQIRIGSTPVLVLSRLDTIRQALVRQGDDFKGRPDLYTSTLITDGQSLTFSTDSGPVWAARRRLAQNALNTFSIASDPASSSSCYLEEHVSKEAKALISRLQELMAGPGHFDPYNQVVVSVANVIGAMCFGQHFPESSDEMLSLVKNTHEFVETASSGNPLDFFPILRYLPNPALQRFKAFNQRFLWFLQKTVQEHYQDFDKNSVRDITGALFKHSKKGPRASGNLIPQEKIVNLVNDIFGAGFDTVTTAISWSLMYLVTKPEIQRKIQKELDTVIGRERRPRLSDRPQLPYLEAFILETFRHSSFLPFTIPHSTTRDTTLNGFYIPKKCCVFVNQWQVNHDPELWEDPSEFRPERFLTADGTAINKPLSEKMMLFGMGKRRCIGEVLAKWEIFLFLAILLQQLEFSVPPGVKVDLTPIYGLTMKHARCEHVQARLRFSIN

HT-1080 = test: HT1080 cell viability loss – fluorescence readout (AID 620); type: functional, cell-based; settings: Homo sapiens
[10] = biological target: Luciferin 4-monooxygenase (Photinus pyralis, UniProt P08659); test: Counter Screen for Luciferase-based Assay Positives. [Related pubchem assays: 620, 618, 411 ]
Luciferin 4-monooxygenase, sequence (P08659 whole entry): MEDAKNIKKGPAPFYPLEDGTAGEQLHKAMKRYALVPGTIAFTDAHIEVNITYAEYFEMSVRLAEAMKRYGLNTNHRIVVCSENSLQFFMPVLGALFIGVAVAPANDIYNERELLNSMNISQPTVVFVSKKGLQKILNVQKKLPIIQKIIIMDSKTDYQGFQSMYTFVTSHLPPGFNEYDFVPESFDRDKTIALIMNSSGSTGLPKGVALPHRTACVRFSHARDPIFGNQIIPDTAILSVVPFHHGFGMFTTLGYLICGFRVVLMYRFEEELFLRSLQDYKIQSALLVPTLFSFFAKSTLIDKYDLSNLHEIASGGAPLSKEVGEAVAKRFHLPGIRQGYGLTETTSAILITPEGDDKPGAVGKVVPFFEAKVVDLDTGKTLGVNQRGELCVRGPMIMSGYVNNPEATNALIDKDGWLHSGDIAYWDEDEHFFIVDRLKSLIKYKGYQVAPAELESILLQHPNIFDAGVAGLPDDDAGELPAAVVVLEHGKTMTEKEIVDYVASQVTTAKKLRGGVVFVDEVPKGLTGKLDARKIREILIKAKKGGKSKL

- EC50 [1]: > 79.4 µM (not active)
- EC50 [2]: > 79.4 µM (not active)
- EC50 [3]: > 79.4 µM (not active)
SMILES: COc1ccc(Nc2nc(S(=O)(=O)c3ccc(C)cc3)c(Cl)s2)cc1

- EC50 [1]: 12.1 µM (not active)
- EC50 [2]: 11.2 µM (not active)
- EC50 [3]: 11 µM (not active)
SMILES: COc1ccc2sc3c(O)nc4ccccc4c3c2c1

SMILES: CN(C(=O)COC(=O)c1ccc(-c2ccc(O)cc2)cc1)C1CCS(=O)(=O)C1 (stereo not given)
- IC50 [4]: > 66.6 µM (inactive)
- IC50 [5]: 16.1 µM (active)

- AC50 [6]: 36.3 µM (active)
SMILES: CCN1CCN(CCCNC(=O)c2cc3c(=O)oc4ccc(C)cc4c3s2)CC1

- EC50 [1]: 16.2 µM (not active)
- EC50 [2]: > 79.4 µM (not active)
- EC50 [3]: > 79.4 µM (not active)
SMILES: c1ccc(-n2ncc3c2ncn2nc(-c4ccco4)nc32)cc1

- EC50 [7]: 0.299 µM (active)
SMILES: CC1CCc2nc(NC(=O)CN3CCN(Cc4ccc5c(c4)OCO5)CC3)sc2C1 (stereo not given)

- AC50 (Cytochrome P450 2C9): inconclusive
- IC50 [8]: > 47.1 µM (inactive)
- EC50 [9]: > 53 µM (inactive)
- AC50 (Cytochrome P450 1A2): 39.8 µM (inconclusive)
SMILES: O=C1CSC(c2ccccc2F)N1c1cc(Cl)ccc1O (stereo not given)

SMILES: Cc1ccccc1Cn1nnc(-c2cccc(C(=O)O)c2)n1
- EC50 (HT-1080): > 50 µM (not active)
- EC50 [10]: > 100 µM (not active)

SMILES: O=C(Nc1ccc(N2CCCCC2)cc1)c1ccccc1
- EC50 (HT-1080): > 50 µM (not active)
- EC50 [1]: > 79.4 µM (not active)
- EC50 [10]: 1.28 µM (active)
- EC50 [2]: > 79.4 µM (not active)
- EC50 [3]: > 79.4 µM (not active)

- EC50 [7]: 0.531 µM (active)
SMILES: Cc1cc(Cl)c2oc(C(=O)N(C)Cc3nccn3C)c(C)c2c1
